In the supplement of paper PMC10307832:

How the values were obtained:
Experiment in all cases: relative viability (nuclei count vs DMSO), 5 days (fraction); higher = more cells survive
[1] = compound: CN1CCC(CNc2ccc3ncc(-c4cccc(OC(F)(F)F)c4)n3n2)CC1 [SGI-1776] + CC(C)C[C@H](NC(=O)[C@H](Cc1ccccc1)NC(=O)c1cnccn1)B(O)O [Bortezomib] (partner 0.002 µM)
In short: (§1)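 The day after seeding in 1536-well plates, lung cancer cell lines were treated by pin tool with a single drug, or with a fixed anchor-drug dose together with five library-drug doses (not always all listed) in √10 steps. After 5 days, a combined fix-and-stain solution (final 0.05% Triton X-100, 1% formaldehyde, 1 ug/ml Hoechst) was added. Nuclei counted on 4× images gave relative viability as treated counts over vehicle counts, reported as the median of duplicate plates.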

[2] = compound: Nc1ccccc1NC(=O)c1ccc(CNC(=O)OCc2cccnc2)cc1 [Entinostat] + COc1cc2c(Oc3ccc(NC(=O)C4(C(=O)Nc5ccc(F)cc5)CC4)cc3F)ccnc2cc1OCCCN1CCOCC1 [Foretinib] (partner 0.25 µM)
In short: as §1

[3] = compound: Nc1ccccc1NC(=O)c1ccc(CNC(=O)OCc2cccnc2)cc1 [Entinostat] + CS(=O)(=O)CCNCc1ccc(-c2ccc3ncnc(Nc4ccc(OCc5cccc(F)c5)c(Cl)c4)c3c2)o1 [Lapatinib] (partner 2 µM)
In short: as §1

[4] = compound: Nc1ccccc1NC(=O)c1ccc(CNC(=O)OCc2cccnc2)cc1 [Entinostat] + C[C@@H](Oc1cc(-c2cnn(C3CCNCC3)c2)cnc1N)c1c(Cl)ccc(F)c1Cl [Crizotinib] (partner 1 µM)
In short: as §1

| Cell Line | relative viability ([1]; first compound 0.08 µM) | relative viability ([1]; first compound 0.8 µM) | relative viability ([1]; first compound 2.53 µM) | relative viability ([1]; first compound 8 µM) | relative viability ([2]; first compound 0.02 µM) | relative viability ([2]; first compound 0.06325 µM) | relative viability ([2]; first compound 0.2 µM) | relative viability ([2]; first compound 0.6325 µM) | relative viability ([2]; first compound 2 µM) | relative viability ([3]; first compound 0.02 µM) | relative viability ([3]; first compound 0.06325 µM) | relative viability ([3]; first compound 0.2 µM) | relative viability ([3]; first compound 0.6325 µM) | relative viability ([3]; first compound 2 µM) | relative viability ([4]; first compound 0.02 µM) | relative viability ([4]; first compound 0.06325 µM) | relative viability ([4]; first compound 0.2 µM) | relative viability ([4]; first compound 0.6325 µM) | relative viability ([4]; first compound 2 µM) |
| --- | --- | --- | --- | --- | --- | --- | --- | --- | --- | --- | --- | --- | --- | --- | --- | --- | --- | --- | --- |
| NCI-H1734 | 0.903 | 1.11 | 0.88 | 0.739 | 0.883 | 0.939 | 0.929 | 0.773 | 0.603 | 1.16 | 1.11 | 1.05 | 0.787 | 0.481 | 0.622 | 0.709 | 0.894 | 0.555 | 0.423 |
| NCI-H727 | 0.888 | 1.13 | 0.855 | 0.724 | 0.753 | 0.782 | 0.794 | 0.679 | 0.521 | 0.941 | 0.804 | 0.793 | 0.533 | 0.451 | 0.765 | 0.731 | 0.693 | 0.628 | 0.342 |
| NCI-H23 | 0.997 | 1.09 | 1.07 | 0.991 | 1.05 | 1.09 | 1.01 | 0.445 | 0.43 | 1.17 | 1.13 | 1.02 | 0.616 | 0.476 | 0.5 | 0.545 | 0.407 | 0.39 | 0.166 |
| NCI-H596 | 0.924 | 1.08 | 0.95 | 0.973 | 0.851 | 0.727 | 0.913 | 0.698 | 0.655 | 1.06 | 1.13 | 1.07 | 0.81 | 0.709 | 1 | 0.982 | 0.992 | 0.978 | 0.52 |
| NCI-H460 | 1.18 | 1.2 | 1.11 | 0.82 | 0.967 | 0.954 | 0.699 | 0.193 | 0.0625 | 1 | 0.761 | 0.462 | 0.0242 | 0.0172 | 0.907 | 0.945 | 0.522 | 0.0251 | 0.0158 |
